Test [1] in a line: off-target signal loss in HeLa-CEM21 co-culture – HeLa F-luc CTL cells, cherry-picked, counter-screen for HIV-1 Env fusion inhibitor project, dose response (AID 652040).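 Also: potency for signal decrease marking cytotoxic or nonspecific inhibition.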 Type of test: functional, cell-based. Background: Counterscreens check selectivity or assay interference.
For test [2], the system named is INS1. The test can be described thus: INS-1E survival protection against cytokine death – cell-based, luminescence, retest, dose response (AID 449756).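 Also: cell death triggered by IL-1 beta plus TNF-alpha plus IFN-gamma mixture; protective hits raise ATP signal compared with cytokine alone wells.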 Type of test: functional. The conditions noted are these: Rattus norvegicus.
For test [3], the system named is Streptococcus sp. 'group A'. As to the kind of experiment: Streptococcus pyogenes SK(-)GAS viability under kanamycin – luminescence, BacTiterGlo, confirmation, counter-screen for streptokinase expression inhibitor project, dose response (AID 1900). The class given is functional, organism-based.
In test [4] the test system is Jurkat. The test can be described thus: blockers of NF-kB activation in T cells – Jurkat, luciferase reporter, luminescence, B- and T-cell, dose response (AID 489004).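 Also: NF-kB luciferase reporter Jurkat cells stimulated with PMA plus ionomycin.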 Type of test: functional, cell-based. The conditions noted are these: Homo sapiens. On the technique in general: In a reporter assay the amount or activity of a reporter protein is the signal.
Test [5] deals with Caspase-9 (Homo sapiens, UniProt P55211). The test can be described thus: inhibitors of purified CASP9 protease – biochemical, fluorescence, plate reader, cherry-picked samples, selectivity assay for caspase-6 inhibitor project, dose response (AID 743293).
Test [6] deals with T1, Histone-lysine N-methyltransferase NSD2 (Homo sapiens, UniProt O96028).
T1 sequence (O96028 whole entry): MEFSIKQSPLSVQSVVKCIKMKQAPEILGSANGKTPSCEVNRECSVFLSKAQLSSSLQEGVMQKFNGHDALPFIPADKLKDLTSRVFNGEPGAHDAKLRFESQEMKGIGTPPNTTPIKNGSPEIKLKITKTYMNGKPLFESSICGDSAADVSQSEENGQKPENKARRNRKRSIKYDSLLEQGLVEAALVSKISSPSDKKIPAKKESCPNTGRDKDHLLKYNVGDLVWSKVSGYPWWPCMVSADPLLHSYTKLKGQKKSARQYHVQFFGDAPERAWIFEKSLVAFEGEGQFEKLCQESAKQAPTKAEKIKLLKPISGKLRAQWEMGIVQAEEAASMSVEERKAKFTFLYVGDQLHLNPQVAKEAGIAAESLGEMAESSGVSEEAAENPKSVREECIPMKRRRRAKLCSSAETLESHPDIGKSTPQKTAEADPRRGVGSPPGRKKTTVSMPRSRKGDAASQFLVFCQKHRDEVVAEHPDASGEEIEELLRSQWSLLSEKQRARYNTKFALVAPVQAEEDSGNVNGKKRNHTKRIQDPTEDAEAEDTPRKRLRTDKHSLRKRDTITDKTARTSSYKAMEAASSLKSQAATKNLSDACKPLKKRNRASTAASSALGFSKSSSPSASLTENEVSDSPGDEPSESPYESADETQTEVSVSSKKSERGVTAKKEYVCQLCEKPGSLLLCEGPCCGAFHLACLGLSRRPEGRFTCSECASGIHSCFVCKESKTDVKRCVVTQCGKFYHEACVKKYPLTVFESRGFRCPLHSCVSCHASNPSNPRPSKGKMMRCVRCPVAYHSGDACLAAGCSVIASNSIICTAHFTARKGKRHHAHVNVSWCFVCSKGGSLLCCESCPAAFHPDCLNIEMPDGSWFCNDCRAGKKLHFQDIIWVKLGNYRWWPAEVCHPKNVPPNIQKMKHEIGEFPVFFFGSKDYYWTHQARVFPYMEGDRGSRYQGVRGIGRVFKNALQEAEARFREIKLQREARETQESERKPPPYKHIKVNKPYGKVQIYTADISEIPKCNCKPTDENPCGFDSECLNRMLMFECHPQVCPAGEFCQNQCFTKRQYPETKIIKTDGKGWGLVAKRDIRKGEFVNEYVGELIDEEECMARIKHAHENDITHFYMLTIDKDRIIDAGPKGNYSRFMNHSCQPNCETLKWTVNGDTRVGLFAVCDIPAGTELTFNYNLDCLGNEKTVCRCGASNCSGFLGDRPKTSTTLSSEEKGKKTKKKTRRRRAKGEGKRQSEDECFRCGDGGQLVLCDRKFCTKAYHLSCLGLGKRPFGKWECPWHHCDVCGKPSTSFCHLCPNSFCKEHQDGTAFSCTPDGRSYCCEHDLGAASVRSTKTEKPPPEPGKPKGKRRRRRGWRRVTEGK
The class given is biochemical.

Test [7] addresses Lysine-specific demethylase 4C (Homo sapiens, UniProt Q9H3R0). The test can be described thus: inhibition of JMJD2C H3K9me3 demethylation – biochemical, DELFIA europium, cherry-picked samples, dose response (AID 488835). Type of test: functional.
The target of test [8] is ORF 73 (Human herpesvirus 8, UniProt O40947). The test can be described thus: KSHV LANA DNA-binding disruption – biochemical, fluorescence polarization, cherry-picked samples, dose response (AID 504725).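 Also: fluorescence polarization of a labeled DNA duplex reporting LANA DNA binding; potency is for inhibitors that block LANA binding to the DNA.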 Details: species or system Human gammaherpesvirus 8. (In general: In fluorescence polarisation assays a small probe gives low polarisation when free and higher when bound to something large.)

Test [9] addresses Intestinal-type alkaline phosphatase (Mus musculus, UniProt P24822). The test can be described thus: PubChem AID 488785. The class given is functional.

The source made the active and inactive calls. Rule as the data show it, for most assays here: actives have a measured AC50 and inactives only a lower limit.

This note sets out measurements from ChEMBL document CHEMBL1201862, “PubChem BioAssay data set” (2004).

Caspase-9, sequence (P55211 1-315 limits assumed): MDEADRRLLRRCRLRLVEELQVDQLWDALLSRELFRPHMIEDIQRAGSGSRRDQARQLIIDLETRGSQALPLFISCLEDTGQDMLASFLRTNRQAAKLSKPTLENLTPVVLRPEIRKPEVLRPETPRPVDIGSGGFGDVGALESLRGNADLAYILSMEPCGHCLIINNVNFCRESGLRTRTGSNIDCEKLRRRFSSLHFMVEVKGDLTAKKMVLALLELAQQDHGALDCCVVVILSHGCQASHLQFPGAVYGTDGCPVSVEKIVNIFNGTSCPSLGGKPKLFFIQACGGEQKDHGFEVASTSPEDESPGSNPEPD
Caspase-9, sequence (P55211 331-416 limits assumed): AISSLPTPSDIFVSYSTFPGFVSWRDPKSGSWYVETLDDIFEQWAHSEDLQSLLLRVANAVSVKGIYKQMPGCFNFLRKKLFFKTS
Lysine-specific demethylase 4C, sequence (Q9H3R0 whole entry): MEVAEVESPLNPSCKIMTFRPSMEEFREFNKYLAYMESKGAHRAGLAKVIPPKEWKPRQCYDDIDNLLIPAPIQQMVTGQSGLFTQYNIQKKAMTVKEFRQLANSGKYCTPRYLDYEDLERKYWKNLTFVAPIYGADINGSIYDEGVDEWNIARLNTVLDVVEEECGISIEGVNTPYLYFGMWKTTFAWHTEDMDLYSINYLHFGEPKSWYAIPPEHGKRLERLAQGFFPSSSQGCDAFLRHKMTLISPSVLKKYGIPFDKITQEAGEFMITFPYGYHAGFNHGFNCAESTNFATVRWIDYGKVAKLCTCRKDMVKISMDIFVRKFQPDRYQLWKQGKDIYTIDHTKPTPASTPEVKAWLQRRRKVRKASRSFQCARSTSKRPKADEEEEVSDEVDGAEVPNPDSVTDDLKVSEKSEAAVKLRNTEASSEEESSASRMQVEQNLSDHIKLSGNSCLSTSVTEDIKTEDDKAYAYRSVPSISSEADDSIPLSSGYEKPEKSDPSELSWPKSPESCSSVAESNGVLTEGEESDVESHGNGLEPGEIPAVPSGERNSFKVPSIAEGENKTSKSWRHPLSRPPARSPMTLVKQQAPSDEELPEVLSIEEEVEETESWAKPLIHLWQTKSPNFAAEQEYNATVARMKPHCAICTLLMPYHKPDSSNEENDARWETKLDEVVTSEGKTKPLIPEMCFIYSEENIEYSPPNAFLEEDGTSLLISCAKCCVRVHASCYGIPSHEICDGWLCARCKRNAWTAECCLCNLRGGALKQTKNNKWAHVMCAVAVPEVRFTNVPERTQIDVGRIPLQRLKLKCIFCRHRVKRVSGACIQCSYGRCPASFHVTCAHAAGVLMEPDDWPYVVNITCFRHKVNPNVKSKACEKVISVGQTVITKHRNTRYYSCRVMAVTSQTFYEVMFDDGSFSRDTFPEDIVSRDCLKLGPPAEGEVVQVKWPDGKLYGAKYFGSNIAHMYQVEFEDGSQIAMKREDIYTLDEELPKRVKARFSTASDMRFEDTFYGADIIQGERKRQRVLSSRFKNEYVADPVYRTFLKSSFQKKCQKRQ
ORF 73, sequence (O40947 whole entry): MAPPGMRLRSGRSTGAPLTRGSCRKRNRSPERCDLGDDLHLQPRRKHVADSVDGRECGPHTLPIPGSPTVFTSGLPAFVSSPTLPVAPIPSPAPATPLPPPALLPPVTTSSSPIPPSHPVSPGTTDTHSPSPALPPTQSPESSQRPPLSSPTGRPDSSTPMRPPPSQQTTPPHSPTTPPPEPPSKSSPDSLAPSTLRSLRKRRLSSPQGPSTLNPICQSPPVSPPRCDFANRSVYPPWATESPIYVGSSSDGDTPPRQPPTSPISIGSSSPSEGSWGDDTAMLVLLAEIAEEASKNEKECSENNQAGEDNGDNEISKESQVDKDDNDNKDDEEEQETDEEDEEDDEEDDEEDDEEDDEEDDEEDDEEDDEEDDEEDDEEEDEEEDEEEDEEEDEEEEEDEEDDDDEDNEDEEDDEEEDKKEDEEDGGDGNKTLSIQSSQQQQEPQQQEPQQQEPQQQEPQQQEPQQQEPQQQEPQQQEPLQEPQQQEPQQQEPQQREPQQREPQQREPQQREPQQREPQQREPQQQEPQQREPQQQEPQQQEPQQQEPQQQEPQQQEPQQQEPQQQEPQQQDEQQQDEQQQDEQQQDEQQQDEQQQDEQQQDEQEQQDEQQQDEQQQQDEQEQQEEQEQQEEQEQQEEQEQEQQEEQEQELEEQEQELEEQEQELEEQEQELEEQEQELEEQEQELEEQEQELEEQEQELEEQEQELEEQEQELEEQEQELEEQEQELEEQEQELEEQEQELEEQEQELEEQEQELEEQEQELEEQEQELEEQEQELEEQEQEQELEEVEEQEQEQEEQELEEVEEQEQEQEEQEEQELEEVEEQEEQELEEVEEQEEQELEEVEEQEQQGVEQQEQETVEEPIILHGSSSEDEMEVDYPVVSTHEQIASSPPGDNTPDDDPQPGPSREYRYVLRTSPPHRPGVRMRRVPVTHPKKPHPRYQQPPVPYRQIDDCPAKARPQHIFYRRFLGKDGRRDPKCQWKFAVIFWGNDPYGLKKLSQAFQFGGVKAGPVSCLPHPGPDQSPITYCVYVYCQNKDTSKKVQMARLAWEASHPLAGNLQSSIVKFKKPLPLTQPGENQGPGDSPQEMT
Intestinal-type alkaline phosphatase, sequence (P24822 whole entry): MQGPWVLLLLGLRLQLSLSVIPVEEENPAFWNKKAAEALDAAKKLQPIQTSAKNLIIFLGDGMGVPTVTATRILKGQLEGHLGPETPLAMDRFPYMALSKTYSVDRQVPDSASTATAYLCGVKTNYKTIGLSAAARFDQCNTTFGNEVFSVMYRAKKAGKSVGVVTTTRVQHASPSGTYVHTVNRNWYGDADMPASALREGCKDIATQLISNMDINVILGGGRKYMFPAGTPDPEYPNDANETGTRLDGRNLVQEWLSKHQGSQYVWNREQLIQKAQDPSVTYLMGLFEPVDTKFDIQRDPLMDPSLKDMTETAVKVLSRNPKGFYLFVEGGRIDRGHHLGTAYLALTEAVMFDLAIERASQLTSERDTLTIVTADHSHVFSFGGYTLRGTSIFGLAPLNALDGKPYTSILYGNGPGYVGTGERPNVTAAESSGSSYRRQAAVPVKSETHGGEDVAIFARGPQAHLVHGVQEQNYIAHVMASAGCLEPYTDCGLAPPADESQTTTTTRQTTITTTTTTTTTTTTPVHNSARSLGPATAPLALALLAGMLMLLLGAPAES

As a reminder, the AC50 is the concentration giving half of the maximal activity seen. For orientation: EC50 means the concentration needed to bring the measured effect to its halfway point. As usually defined, the IC50 is the concentration that gives 50% inhibition. Regarding `CCCCCCCCCCOC(=O)C[n+]1c(COc2ccccc2OC)n(C)c2ccccc21`, the AC50 in test [1] was 12.3 µM (active); in test [2], 1.04 µM (active). The concentration giving a half-maximal response (EC50) in test [3] was 6.69 µM (active). The 50% inhibitory concentration (IC50) in test [4] is 4.4 µM (active).
`O=c1ccc2c(-c3ccccc3S(=O)(=O)O)c3ccc(O)c(O)c3oc-2c1O` [PYROGALLOL RED]: the AC50 in test [5] is > 70 µM (inactive); in test [6] it was 0.146 µM (active); in [7] it was 1.78 µM (active); in [8], 0.526 µM (active). In test [9], the concentration for half-maximal inhibition (IC50) is 12.4 µM (active).
